Data: article PMC6199744, “Development of Chemical Proteomics for the Folateome and Analysis of the Kinetoplastid Folateome” (ACS Infectious Diseases, 2018)
Read-outs that look alike come from different tables or passages of the source.

Tests used:
Type in all cases: binding
[1] = target: T1, HeLa cell extract proteins (Homo sapiens, UniProt P50416)
T1 construct: endogenous in cells; host or cells: HeLa cell extract
T1 sequence (P50416 1-773): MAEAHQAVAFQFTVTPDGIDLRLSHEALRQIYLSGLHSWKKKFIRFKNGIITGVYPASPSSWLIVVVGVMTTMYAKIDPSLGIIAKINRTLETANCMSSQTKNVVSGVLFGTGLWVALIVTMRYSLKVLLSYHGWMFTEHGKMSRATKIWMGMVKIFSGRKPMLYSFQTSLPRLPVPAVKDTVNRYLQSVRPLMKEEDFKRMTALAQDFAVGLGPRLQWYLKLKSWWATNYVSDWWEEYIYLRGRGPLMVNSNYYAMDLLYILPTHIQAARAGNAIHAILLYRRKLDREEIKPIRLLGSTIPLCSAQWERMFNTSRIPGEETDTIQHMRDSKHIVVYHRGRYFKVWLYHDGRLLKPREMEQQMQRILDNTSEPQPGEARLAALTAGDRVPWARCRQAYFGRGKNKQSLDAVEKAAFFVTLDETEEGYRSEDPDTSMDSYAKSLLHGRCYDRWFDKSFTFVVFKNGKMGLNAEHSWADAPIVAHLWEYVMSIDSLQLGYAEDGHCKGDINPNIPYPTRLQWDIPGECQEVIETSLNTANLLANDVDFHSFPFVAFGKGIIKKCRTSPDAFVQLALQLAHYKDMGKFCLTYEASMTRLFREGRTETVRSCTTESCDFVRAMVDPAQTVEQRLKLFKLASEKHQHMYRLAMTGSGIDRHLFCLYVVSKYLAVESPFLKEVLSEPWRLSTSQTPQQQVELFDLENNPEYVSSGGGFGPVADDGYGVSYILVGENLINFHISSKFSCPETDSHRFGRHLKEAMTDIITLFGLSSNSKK

[2] = target: T2, HeLa cell extract proteins (Homo sapiens, UniProt P62633)
T2 construct: endogenous in cells; host or cells: HeLa cell extract

[3] = target: T3, HeLa cell extract proteins (Homo sapiens, UniProt P27707)
T3 construct: endogenous in cells; host or cells: HeLa cell extract

[4] = target: T4, HeLa cell extract proteins (Homo sapiens, UniProt Q9UH17)
T4 construct: endogenous in cells; host or cells: HeLa cell extract

[5] = target: T5, HeLa cell extract proteins (Homo sapiens, UniProt Q9UII2)
T5 construct: endogenous in cells; host or cells: HeLa cell extract
T5 sequence (Q9UII2 26-106): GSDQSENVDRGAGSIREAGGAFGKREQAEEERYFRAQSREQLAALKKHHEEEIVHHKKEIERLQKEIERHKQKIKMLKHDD

[6] = target: T6, HeLa cell extract proteins (Homo sapiens, UniProt P62191)
T6 construct: endogenous in cells; host or cells: HeLa cell extract

[7] = target: T7, HeLa cell extract proteins (Homo sapiens, UniProt O43143)
T7 construct: endogenous in cells; host or cells: HeLa cell extract

[8] = target: T8, HeLa cell extract proteins (Homo sapiens, UniProt Q9Y230)
T8 construct: endogenous in cells; host or cells: HeLa cell extract

[9] = target: T9, HeLa cell extract proteins (Homo sapiens, UniProt Q8IUH3)
T9 construct: endogenous in cells; host or cells: HeLa cell extract
T9 sequence (Q8IUH3 1-476): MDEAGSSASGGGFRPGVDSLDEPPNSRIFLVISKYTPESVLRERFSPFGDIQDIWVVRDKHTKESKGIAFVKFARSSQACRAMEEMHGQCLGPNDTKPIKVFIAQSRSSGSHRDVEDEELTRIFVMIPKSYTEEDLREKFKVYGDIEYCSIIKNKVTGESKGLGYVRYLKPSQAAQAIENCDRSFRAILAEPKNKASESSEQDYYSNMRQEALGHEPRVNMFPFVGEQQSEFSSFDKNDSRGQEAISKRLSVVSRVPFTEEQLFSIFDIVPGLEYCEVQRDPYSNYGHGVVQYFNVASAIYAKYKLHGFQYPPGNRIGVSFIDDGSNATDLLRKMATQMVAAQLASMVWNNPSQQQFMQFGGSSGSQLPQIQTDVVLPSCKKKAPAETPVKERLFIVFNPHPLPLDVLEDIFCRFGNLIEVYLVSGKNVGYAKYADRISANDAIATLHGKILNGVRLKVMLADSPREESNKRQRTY

[10] = target: T10, HeLa cell extract proteins (Homo sapiens, UniProt Q16576)
T10 construct: endogenous in cells; host or cells: HeLa cell extract

[11] = target: T11, HeLa cell extract proteins (Homo sapiens, UniProt P61769)
T11 construct: endogenous in cells; host or cells: HeLa cell extract

[12] = target: T12, HeLa cell extract proteins (Homo sapiens, UniProt P09972)
T12 construct: endogenous in cells; host or cells: HeLa cell extract
T12 sequence (P09972 1-364): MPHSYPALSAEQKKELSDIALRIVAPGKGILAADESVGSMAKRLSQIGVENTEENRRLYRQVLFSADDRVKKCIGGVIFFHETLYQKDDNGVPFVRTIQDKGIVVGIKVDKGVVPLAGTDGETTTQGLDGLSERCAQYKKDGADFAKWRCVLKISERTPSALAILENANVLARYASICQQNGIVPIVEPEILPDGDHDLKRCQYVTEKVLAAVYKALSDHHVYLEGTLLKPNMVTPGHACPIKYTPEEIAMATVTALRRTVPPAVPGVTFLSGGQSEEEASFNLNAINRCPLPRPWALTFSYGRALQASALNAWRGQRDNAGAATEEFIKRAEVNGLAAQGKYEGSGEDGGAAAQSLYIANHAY

[13] = HeLa, protein RBM45 (ISOFORM 1 OF DEVELOPMENTALLY-REGULATED RNA-BINDING PROTEIN 1)
[14] = HeLa, protein B2M (CDNA FLJ57067, HIGHLY SIMILAR TO BETA-2-MICROGLOBULIN)
[15] = HeLa, protein ALDOC (FRUCTOSE-BI[…] C.)

T4 sequence (Q9UH17 whole entry): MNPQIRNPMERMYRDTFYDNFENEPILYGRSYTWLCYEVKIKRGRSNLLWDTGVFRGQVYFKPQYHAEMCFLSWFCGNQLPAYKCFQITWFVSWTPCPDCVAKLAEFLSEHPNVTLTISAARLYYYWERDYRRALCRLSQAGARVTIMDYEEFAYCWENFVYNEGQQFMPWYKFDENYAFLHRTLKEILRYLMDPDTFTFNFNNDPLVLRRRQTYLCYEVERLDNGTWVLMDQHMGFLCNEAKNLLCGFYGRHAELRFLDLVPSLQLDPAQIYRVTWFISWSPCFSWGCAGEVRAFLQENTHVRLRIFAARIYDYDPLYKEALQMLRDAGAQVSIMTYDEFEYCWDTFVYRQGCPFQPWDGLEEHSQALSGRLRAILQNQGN
T6 sequence (P62191 whole entry): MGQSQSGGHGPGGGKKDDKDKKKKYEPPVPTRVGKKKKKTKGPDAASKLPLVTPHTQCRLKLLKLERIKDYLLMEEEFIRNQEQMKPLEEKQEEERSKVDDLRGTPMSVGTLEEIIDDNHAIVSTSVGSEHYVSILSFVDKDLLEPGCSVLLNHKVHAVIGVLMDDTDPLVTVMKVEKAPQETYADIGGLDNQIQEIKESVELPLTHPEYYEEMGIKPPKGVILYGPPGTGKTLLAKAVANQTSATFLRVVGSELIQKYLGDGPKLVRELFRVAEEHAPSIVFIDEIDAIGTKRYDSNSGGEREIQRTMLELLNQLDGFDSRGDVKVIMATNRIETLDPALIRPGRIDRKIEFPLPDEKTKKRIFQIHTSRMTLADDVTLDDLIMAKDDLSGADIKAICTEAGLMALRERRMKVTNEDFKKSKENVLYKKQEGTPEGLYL
T2 sequence (P62633 whole entry): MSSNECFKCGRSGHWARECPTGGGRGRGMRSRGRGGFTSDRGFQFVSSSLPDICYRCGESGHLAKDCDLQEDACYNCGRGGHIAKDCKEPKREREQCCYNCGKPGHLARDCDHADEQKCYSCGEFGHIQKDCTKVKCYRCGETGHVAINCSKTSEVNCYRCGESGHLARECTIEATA
T10 sequence (Q16576 whole entry): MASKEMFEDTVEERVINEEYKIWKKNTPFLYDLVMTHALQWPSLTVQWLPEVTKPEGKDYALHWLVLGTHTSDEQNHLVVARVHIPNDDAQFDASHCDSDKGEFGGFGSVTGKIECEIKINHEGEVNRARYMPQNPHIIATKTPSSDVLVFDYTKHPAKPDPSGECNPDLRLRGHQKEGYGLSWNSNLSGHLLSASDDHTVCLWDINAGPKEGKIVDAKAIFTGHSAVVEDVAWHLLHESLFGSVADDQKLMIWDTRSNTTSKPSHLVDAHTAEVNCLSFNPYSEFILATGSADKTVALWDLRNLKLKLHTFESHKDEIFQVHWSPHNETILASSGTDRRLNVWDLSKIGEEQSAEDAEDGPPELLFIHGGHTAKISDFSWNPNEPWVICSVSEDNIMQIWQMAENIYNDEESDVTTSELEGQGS
T8 sequence (Q9Y230 whole entry): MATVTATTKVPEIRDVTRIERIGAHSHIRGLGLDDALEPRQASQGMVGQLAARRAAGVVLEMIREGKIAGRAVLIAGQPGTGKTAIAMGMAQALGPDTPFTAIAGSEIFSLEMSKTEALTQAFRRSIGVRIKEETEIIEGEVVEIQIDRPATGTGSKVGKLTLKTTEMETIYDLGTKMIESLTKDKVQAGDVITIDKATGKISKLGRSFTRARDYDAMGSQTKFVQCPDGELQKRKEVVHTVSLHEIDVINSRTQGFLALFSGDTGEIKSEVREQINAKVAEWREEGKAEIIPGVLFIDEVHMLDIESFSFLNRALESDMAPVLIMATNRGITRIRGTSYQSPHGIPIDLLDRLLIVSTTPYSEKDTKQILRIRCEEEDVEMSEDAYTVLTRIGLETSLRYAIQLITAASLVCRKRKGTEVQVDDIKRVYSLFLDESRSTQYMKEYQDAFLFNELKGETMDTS
T7 sequence (O43143 whole entry): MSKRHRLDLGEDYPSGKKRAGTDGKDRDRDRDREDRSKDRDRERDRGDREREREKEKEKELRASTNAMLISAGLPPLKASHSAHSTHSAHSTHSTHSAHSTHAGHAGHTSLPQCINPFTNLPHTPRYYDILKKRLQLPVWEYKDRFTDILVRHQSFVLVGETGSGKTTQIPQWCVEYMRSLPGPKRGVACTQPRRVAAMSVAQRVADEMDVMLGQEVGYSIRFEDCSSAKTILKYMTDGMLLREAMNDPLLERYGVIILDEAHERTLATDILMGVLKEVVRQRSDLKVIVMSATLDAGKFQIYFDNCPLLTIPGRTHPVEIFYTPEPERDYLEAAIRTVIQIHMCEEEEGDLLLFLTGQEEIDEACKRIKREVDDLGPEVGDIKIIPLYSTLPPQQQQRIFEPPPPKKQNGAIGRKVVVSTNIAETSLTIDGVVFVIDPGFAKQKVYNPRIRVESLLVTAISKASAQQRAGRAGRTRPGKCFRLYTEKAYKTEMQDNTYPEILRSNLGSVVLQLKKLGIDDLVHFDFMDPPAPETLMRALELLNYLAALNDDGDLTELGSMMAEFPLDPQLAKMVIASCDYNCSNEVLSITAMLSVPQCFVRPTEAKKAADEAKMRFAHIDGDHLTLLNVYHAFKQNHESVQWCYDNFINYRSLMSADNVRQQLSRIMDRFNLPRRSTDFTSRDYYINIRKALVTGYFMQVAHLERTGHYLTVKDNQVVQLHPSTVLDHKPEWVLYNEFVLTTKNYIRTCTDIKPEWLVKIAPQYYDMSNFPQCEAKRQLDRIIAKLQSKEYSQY
T3 sequence (P27707 whole entry): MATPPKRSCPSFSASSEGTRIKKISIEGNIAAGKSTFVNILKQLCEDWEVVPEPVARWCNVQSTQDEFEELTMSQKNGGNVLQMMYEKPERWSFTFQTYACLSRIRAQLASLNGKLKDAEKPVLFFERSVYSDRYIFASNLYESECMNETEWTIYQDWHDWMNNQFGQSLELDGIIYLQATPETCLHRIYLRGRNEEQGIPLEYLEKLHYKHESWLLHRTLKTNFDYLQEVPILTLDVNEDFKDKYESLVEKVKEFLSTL
T11 sequence (P61769 21-119): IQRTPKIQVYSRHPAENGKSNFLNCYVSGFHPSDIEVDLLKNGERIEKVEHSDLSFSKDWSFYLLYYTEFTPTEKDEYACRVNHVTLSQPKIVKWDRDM

| SMILES | fold changes relative to vehicle control ([1]; HeLa, protein CPT1A) | fold changes relative to vehicle control ([2]; HeLa, captured protein CNBP) | fold changes relative to vehicle control ([4]; HeLa, protein APOBEC3B) | fold changes relative to vehicle control ([5]; HeLa, protein ATPIF1) | fold changes relative to vehicle control ([6]; HeLa, protein PSMC1) | fold changes relative to vehicle control ([7]; protein DHX15, HeLa) | fold changes relative to vehicle control ([8]; protein RUVBL2, HeLa) | fold changes relative to vehicle control [9, 13] | fold changes relative to vehicle control ([10]; HeLa, protein RBBP7) | fold changes relative to vehicle control [11, 14] | fold changes relative to vehicle control ([12]; HeLa, protein ALDOC) | fold changes relative to vehicle control ([1]; captured protein CPT1A, HeLa) | fold changes relative to vehicle control ([2]; protein CNBP, HeLa) | fold changes relative to vehicle control ([3]; protein DCK, HeLa) | fold changes relative to vehicle control ([5]; protein ATPIF1, HeLa) | fold changes relative to vehicle control ([6]; protein PSMC1, HeLa) | fold changes relative to vehicle control ([7]; captured protein DHX15, HeLa) | fold changes relative to vehicle control ([9]; HeLa, protein RBM45) | fold changes relative to vehicle control ([10]; protein RBBP7, HeLa) | fold changes relative to vehicle control ([11]; protein B2M, HeLa) | also measured |
| --- | --- | --- | --- | --- | --- | --- | --- | --- | --- | --- | --- | --- | --- | --- | --- | --- | --- | --- | --- | --- | --- |
| Nc1nc2c(c(=O)[nH]1)N(C=O)C(CNc1ccc(C(=O)N[C@@H](CCC(=O)O)C(=O)O)cc1)CN2 (stereo partly drawn) [LEU, leucovorin] | 0.88 | 0.98 | 0.93 | 1 | 1 | 0.74 | 0.85 | 1.12 | 1.05 | 1.24 | 0.9 | – | – | – | – | – | – | – | – | – | fold changes relative to vehicle control ([3]; HeLa, protein DCK (DEO[…])): 1.12 |
| Nc1nc2[nH]cc(CCc3ccc(C(=O)N[C@@H](CCC(=O)O)C(=O)O)cc3)c2c(=O)[nH]1 [PTX, pemetrexed] | – | – | – | – | – | – | – | – | – | – | – | – | – | – | – | – | – | – | – | – | fold changes relative to vehicle control [1]: 0.84; fold changes relative to vehicle control [2]: 1.14; fold changes relative to vehicle control [3]: 1; fold changes relative to vehicle control [4]: 0.89; fold changes relative to vehicle control [5]: 1.84; fold changes relative to vehicle control [6]: 0.92; fold changes relative to vehicle control [7]: 0.71; fold changes relative to vehicle control [8]: 0.87; fold changes relative to vehicle control [9]: 1.04; fold changes relative to vehicle control [10]: 1.04; fold changes relative to vehicle control [11]: 1.51; fold changes relative to vehicle control [12]: 1.04 |
| CCCCCCOc1ccc(Cc2cnc(N)nc2N)cc1 [compound 1] | – | – | 0.92 | – | – | – | 1.03 | – | – | – | – | 0.9 | 1.26 | 0.98 | 0.97 | 0.98 | 0.71 | 1.06 | 1.05 | 1.14 | fold changes relative to vehicle control [12, 15]: 1.49 fold |
| CCCCCCOc1cccc(Cc2cnc(N)nc2N)c1 [compound 2] | – | – | 1.25 | – | – | – | 1.34 | – | – | – | – | 1.04 | 1.8 | 0.9 | 1.32 | 1.42 | 0.9 | 0.99 | 1.47 | 1.16 | fold changes relative to vehicle control ([12]; HeLa, protein ALDOC (FRUCTOSE-BISPHOSPHATE ALDOLASE C.)): 2.35 fold |
| Nc1nc2cccc(-c3ccccc3)c2n1Cc1ccc(Cl)c(Cl)c1 [compound 3] | – | – | 1.01 | – | – | – | 1.02 | – | – | – | – | 0.95 | 0.83 | 1.01 | 0.91 | 1 | 0.62 | 0.96 | 0.85 | 1.07 | fold changes relative to vehicle control [12, 15]: 1.23 fold |
| NCCOCCOCC(=O)Nc1nc2ncc(CNc3ccc(C(=O)NC(CCC(=O)O)C(=O)O)cc3)nc2c(=O)[nH]1 (stereo not drawn) [compound 6] | 1.01 | 1.3 | 1.02 | 1.91 | 0.95 | 0.83 | 1.06 | 1 | 1.18 | 1.37 | 1.06 | – | – | – | – | – | – | – | – | – | fold changes relative to vehicle control ([3]; HeLa, protein DCK (DEOXYCYTIDINE KINASE)): 0.93 |
| NCCCNc1ccc(C(=O)NC(CCC(=O)O)C(=O)O)cc1 (stereo not drawn) [compound 7] | 0.99 | 1.04 | 0.94 | 1.41 | 0.85 | 0.75 | 0.95 | 0.96 | 0.98 | 1.31 | 1.12 | – | – | – | – | – | – | – | – | – | fold changes relative to vehicle control ([3]; HeLa, protein DCK (DEO[…])): 1.04 |
